Experimental data as given in patent publication US20100087459A1, “FORMS OF LAPATINIB COMPOUNDS AND PROCESSES FOR THE PREPARATION THEREOF” (priority 2008, published 2010).

Assay: stability of crystalline Form M1 in commonly used solvents and at high temperature
Type: physicochemical
Details: solvents used for production and especially for formulation of the pharmaceutical product

Lapatinib monotosylate [Form M1]
stability in commonly used solvents: high stability
